Experimental data published in US20240059698A1 (Accutar Biotechnology Inc., priority 2022, published 2024).

Legend:
[1] = test system: HCC827-YVMA cells (human ERBB2 exon20 insertion mutant A775_G776ins YVMA); assay: Cell growth inhibition (CellTiter-Glo), HCC827-YVMA; assay type: cell-based; conditions: 72 h, HCC827-YVMA cells, 3 days, CellTiter-Glo, read-out: Cell growth inhibition, GI50 (nM) HCC827-YVMA
Procedure: (§1) Generation of HCC827-SVD, HCC827-ASV, and HCC827-YVMA cell lines. The HCC827-SVD cell line was generated by first transducing HCC827 cells (ATCC) with lentiviral particles expressing codon-optimized human EGFR exon 20 insertion mutant D770_N771insSVD, and then selecting under 5 µg/mL puromycin treatment for a week. The resulting cells were further transduced with lentiviral particles carrying EGFR sgRNA and CAS9 to knockout the endogenous alleles of EGER and then selected under 500 µg/mL hygromycin B treatment for two weeks. The limiting dilution approach was used to subsequently generate the single clone of the HCC827-SVD stable cell line. Endogenous EGFR knockout was confirmed by Sanger sequencing of cell genomic DNA, and expression of exogenous mutant EGFR was verified by Western blot analysis.
HCC827-ASV and HCC827-YVMA cell lines were generated in a similar approach as HCC827-SVD, except that HCC827 cells (ATCC) were first transduced with lentiviral particles expressing codon-optimized human EGFR exon 20 insertion mutant V769_D770insASV and human ERBB2 exon20 insertion mutant A775_G776ins YVMA, respectively.
(§2) 2. Cell Growth Inhibition for HCC827, HCC827-SVD, HCC827-ASV, HCC827-YVMA, and A431.
(§3) HCC827(ATCC), HCC827-SVD, HCC827-ASV, and HCC827-YVMA cells were seeded in 96-well plates at 5000 cells/well in 90 μL of RPMI growth medium containing 10% FBS and 1% Penicillin Streptomycin. A431 (ATCC) cells were seeded in 96-well plates at 5000 cells/well in 90 μL of DMEM growth medium containing 10% FBS and 1% Penicillin Streptomycin. Cells were incubated at 37° C. overnight and then administered with 10 μL 10× test compounds prepared in the growth medium at various concentrations. After administration of the compounds, cells were incubated at 37° C. for 3 days. Before the CellTiter-Glo assay, the plates were equilibrated at room temperature for approximately 30 minutes. 100 ul of CellTiter-Glo reagent (Promega) was added to each well. The plates were then incubated at room temperature for 10 minutes and luminescence was recorded by the EnSight® multimode plate reader (PerkinElmer). Table 7 listed selected compounds in cellular growth assay.

[2] = test system: HCC827-SVD cells (human EGFR exon 20 insertion mutant D770_N771insSVD); assay: Cell growth inhibition (CellTiter-Glo), HCC827-SVD; assay type: cell-based; conditions: 72 h, 3 days
Procedure: as §1, §2, §3

| Structure (SMILES) | GI50 [1] | GI50 [2] |
| --- | --- | --- |
| C=CC(=O)N1CCC(c2c[nH]c3ncnc(Nc4ccc(OCc5ncccc5Cl)c(Cl)c4)c23)CC1 [Compound 35, 1-(4-(4-((3-chloro-4-((3-chloropyridin-2-yl)methoxy)phenyl)amino)-7H-pyrrolo[2,3-d]pyrimidin-5-yl)piperidin-1-yl)prop-2-en-1-one] | < 50 nM | < 50 nM |
| C=CC(=O)N1CCC(c2c[nH]c3ncnc(Nc4ccc(OCc5cccc(F)n5)c(Cl)c4)c23)CC1 [Compound 36, 1-(4-(4-((3-chloro-4-((6-fluoropyridin-2-yl)methoxy)phenyl)amino)-7H-pyrrolo[2,3-d]pyrimidin-5-yl)piperidin-1-yl)prop-2-en-1-one] | < 50 nM | < 50 nM |
| C=CC(=O)N1CCC(c2c[nH]c3ncnc(Nc4ccc(OCc5ncccc5F)c(Cl)c4)c23)CC1 [Compound 37, 1-(4-(4-((3-chloro-4-((3-fluoropyridin-2-yl)methoxy)phenyl)amino)-7H-pyrrolo[2,3-d]pyrimidin-5-yl)piperidin-1-yl)prop-2-en-1-one] | < 50 nM | < 50 nM |
| C=CC(=O)N1CCC(c2c[nH]c3ncnc(Nc4ccc(Oc5ccnc(NC(=O)C6CCCC6)c5)c(Cl)c4)c23)CC1 [Compound 38, N-[4-[2-chloro-4-[[5-(1-prop-2-enoyl-4-piperidyl)-7H-pyrrolo[2,3-d]pyrimidin-4-yl]amino]phenoxy]-2-pyridyl]cyclopentanecarboxamide] | 50 to 200 nM | 50 to 200 nM |
| C=CC(=O)N1CCC(c2c[nH]c3ncnc(Nc4ccc(OCc5ccccn5)c(Br)c4)c23)CC1 [Compound 39, 1-(4-(4-((3-bromo-4-(pyridin-2-ylmethoxy)phenyl)amino)-7H-pyrrolo[2,3-d]pyrimidin-5-yl)piperidin-1-yl)prop-2-en-1-one] | < 50 nM | < 50 nM |
| C=CC(=O)N1CCC(c2c[nH]c3ncnc(Nc4ccc(Oc5ccnc(Nc6ccccn6)c5)c(Cl)c4F)c23)CC1 [Compound 40, 1-(4-(4-((3-chloro-2-fluoro-4-((2-(pyridin-2-ylamino)pyridin-4-yl)oxy)phenyl)amino)-7H-pyrrolo[2,3-d]pyrimidin-5-yl)piperidin-1-yl)prop-2-en-1-one] | < 50 nM | < 50 nM |
| C=CC(=O)N1CCC(c2c[nH]c3ncnc(Nc4ccc(Oc5ccn(-c6ccc7cc[nH]c7n6)n5)cc4F)c23)CC1 [Compound 41, 1-(4-(4-((4-((1-(1H-pyrrolo[2,3-b]pyridin-6-yl)-1H-pyrazol-3-yl)oxy)-2-fluorophenyl)amino)-7H-pyrrolo[2,3-d]pyrimidin-5-yl)piperidin-1-yl)prop-2-en-1-one] | 200 to 1000 nM | 50 to 200 nM |
| C=CC(=O)N1CCC(c2c[nH]c3ncnc(Nc4ccc(Oc5ccnc(NCc6ccccn6)c5)cc4F)c23)CC1 [Compound 42, 1-(4-(4-((2-fluoro-4-((2-((pyridin-2-ylmethyl)amino)pyridin-4-yl)oxy)phenyl)amino)-7H-pyrrolo[2,3-d]pyrimidin-5-yl)piperidin-1-yl)prop-2-en-1-one] | 200 to 1000 nM | 200 to 1000 nM |
| C=CC(=O)N1CCC(c2c[nH]c3ncnc(Nc4ccc(Oc5ccnc(N6CCC(C(F)(F)F)C6)c5)c(Cl)c4)c23)CC1 (stereo not shown) [Compound 43, 1-[4-[4-[3-chloro-4-[[2-[3-(trifluoromethyl)pyrrolidin-1-yl]-4-pyridyl]oxy]anilino]-7H-pyrrolo[2,3-d]pyrimidin-5-yl]-1-piperidyl]prop-2-en-1-one] | 50 to 200 nM | 50 to 200 nM |
| C=CC(=O)N1CCC(c2c[nH]c3ncnc(Nc4ccc(Oc5cccc(C(F)(F)F)c5)c(Cl)c4)c23)CC1 [Compound 225, 1-[4-[4-[3-chloro-4-[3-(trifluoromethyl)phenoxy]anilino]-7H-pyrrolo[2,3-d]pyrimidin-5-yl]-1-piperidyl]prop-2-en-1-one] | < 50 nM |  |
